Source: patent US20110105564A1, “THIENYLPYRIDYLCARBOXAMIDES” (Bayer CropScience AG, priority 2005, published 2011)

Assay: logP determination by HPLC on a reverse-phase column (EEC Directive 79/831 Annex V.A8)
Type: physicochemical
Details: reverse-phase HPLC column (C 18); acidic range pH 2.3; 0.1% aqueous phosphoric acid and acetonitrile, linear gradient 10% to 90% acetonitrile; C 18 column; 43° C.
Method: The logP values given in the Tables and Preparation Examples above are determined in accordance with EEC Directive 79/831 Annex V.A8 by HPLC (High Performance Liquid Chromatography) on a reverse-phase column (C 18). Temperature: 43° C. The determination is carried out in the acidic range at pH 2.3 using the mobile phases 0.1% aqueous phosphoric acid and acetonitrile; linear gradient from 10% acetonitrile to 90% acetonitrile. Calibration is carried out using unbranched alkan-2-ones (having 3 to 16 carbon atoms), with known logP values (determination of the logP values by the retention times using linear interpolation between two successive alkanones).

| chromatographic logP | Structure (SMILES) |
| --- | --- |
| 2.25 | O=C(Nc1ccsc1-c1ccc(Br)cn1)c1cccnc1Cl [Example 1, N-[2-(5-bromopyridin-2-yl)-3-thienyl]-2-chloronicotinamide] |
| 3.27 | CC(C)(C)OC(=O)Nc1ccsc1-c1ccc(Br)cn1 [Example (III-a-1), tert-butyl[2-(5-bromopyridin-2-yl)-3-thienyl]carbamate] |
| 2.43 | CC(C)(C)OC(=O)Nc1ccsc1I [Example (VI-1), tert-butyl (2-iodo-3-thienyl)carbamate] |
| 0.87 | Nc1ccsc1-c1ccc(Br)cn1 [Example (III-1), 2-(5-bromopyridin-2-yl)thiophene-3-amine] |
